What was measured:
GCN2 [1] = target: T1, GCN2 (Homo sapiens, UniProt Q9P2K8); experiment: GCN2 enzyme assay (TR-FRET Lanthascreen, GFP-eIF2alpha phosphorylation); type: biochemical; settings: 10 μM ATP, 80 nM GFP-eIF2a, 30 nM GCN2
Method in brief: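 Phosphorylation of GFP-eIF2alpha (80 nM) by GCN2 run at room temperature with 10 μM ATP. After EDTA quench, product quantified by Lanthascreen TR-FRET (antibody–GFP complex, 340 nm excitation).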
Target sequence in this assay (Q9P2K8 whole entry, species assumed): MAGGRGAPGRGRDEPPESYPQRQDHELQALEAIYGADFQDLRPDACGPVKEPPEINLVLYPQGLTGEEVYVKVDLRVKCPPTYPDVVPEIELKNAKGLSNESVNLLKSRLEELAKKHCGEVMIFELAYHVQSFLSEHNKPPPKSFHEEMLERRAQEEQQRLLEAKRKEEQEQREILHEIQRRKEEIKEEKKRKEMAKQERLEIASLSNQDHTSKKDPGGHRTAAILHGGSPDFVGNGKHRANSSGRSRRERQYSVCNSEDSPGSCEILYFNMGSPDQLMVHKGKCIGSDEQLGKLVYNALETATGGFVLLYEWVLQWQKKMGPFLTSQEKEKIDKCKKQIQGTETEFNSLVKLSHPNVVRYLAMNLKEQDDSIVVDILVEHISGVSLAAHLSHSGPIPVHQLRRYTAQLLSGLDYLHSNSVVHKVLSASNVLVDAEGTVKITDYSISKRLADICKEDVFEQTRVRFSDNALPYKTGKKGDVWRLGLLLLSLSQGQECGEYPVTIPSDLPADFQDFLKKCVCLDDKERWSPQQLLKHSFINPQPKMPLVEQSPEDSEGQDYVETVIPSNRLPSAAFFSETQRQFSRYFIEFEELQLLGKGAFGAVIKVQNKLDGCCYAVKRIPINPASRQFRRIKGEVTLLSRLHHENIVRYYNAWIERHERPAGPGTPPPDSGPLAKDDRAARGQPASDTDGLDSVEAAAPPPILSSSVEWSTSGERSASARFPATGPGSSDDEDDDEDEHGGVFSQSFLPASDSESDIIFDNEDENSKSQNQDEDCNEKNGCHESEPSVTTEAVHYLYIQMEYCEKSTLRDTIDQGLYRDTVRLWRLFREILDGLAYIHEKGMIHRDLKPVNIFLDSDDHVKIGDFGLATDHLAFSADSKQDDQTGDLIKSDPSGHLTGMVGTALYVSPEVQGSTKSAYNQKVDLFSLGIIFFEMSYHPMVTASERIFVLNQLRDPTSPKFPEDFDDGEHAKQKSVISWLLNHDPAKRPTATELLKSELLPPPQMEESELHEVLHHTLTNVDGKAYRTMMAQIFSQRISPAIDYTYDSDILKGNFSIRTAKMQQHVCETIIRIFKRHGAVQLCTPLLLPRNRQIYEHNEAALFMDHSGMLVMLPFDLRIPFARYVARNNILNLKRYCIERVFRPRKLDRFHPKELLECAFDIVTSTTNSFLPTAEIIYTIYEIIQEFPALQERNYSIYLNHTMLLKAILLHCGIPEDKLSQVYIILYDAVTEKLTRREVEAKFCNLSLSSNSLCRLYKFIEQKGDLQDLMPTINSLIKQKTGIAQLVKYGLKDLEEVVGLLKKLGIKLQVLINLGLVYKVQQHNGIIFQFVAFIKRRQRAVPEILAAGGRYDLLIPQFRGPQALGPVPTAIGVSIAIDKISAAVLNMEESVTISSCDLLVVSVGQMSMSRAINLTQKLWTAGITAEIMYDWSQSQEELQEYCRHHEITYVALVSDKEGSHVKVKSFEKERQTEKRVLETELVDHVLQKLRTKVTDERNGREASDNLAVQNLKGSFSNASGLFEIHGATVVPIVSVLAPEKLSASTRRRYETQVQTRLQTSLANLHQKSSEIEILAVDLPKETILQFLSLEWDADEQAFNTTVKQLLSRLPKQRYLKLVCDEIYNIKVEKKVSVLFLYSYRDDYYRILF

GCN2 [2] = target: T1, GCN2; experiment: Cellular assay of GCN2 activity (phospho-eIF2alpha immunocytochemistry after tryptophanol); type: cell-based; parameters: endogenous in cells; host or cells: U2OS; settings: Human U2OS cells, 2 h compound, 600 μM tryptophanol 30 min
Method in brief: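 Readout in human U2OS cells: compound pretreatment 2 h, then tryptophanol (600 μM final) for 30 min to trigger GCN2 signalling. Fixed, permeabilised cells quantified by immunocytochemistry for phosphorylation, normalised to DMSO controls as % effect; IC50 from concentration-response.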
Target sequence in this assay (Q9P2K8 whole entry): as the sequence (Q9P2K8 whole entry, species assumed) above

GSK3α(h) = GSK3α(h) (Homo sapiens, UniProt P49840); experiment: GSK3α radiometric kinase assay (33P-ATP, phospho GS2 peptide); type: biochemical; settings: read-out: IC50 GSK3α (enzyme assay)
Method in brief: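 Human GSK3α incubated with 20 μM phospho-GS2 peptide in 8 mM MOPS pH 7,0, 10 mM Mg-acetate and [γ-33P]ATP (concentration as required), started with MgATP. After 40 minutes at room temperature, stopped with phosphoric acid; 33P incorporation measured by filtermat spotting and scintillation counting.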

GSK3β(h) = GSK3β(h) (Homo sapiens, UniProt P49841); experiment: GSK3β radiometric kinase assay (33P-ATP, phospho GS2 peptide); type: biochemical; settings: read-out: IC50 GSK3β (enzyme assay)
Method in brief: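 Human GSK3β in 8 mM MOPS pH 7,0, 0,2 mM EDTA, 10 mM Mg-acetate with 20 μM phospho-GS2 peptide; the reaction was started with [γ-33P]MgATP at an unstated level. After 40 min at room temperature it was stopped with phosphoric acid, and the peptide was captured on P30 filtermat for scintillation counting.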

GSK3β(h), sequence (P49841 whole entry): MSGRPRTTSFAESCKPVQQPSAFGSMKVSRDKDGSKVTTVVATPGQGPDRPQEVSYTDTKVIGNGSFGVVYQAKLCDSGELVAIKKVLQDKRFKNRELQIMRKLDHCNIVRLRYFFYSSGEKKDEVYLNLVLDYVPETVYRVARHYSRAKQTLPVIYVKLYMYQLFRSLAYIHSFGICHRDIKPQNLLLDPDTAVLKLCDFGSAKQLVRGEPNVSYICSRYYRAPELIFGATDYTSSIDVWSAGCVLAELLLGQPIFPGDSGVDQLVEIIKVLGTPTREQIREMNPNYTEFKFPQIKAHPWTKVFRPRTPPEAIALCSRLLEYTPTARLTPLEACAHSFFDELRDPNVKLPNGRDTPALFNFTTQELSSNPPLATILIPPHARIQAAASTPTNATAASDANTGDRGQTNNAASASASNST
GSK3α(h), sequence (P49840 whole entry): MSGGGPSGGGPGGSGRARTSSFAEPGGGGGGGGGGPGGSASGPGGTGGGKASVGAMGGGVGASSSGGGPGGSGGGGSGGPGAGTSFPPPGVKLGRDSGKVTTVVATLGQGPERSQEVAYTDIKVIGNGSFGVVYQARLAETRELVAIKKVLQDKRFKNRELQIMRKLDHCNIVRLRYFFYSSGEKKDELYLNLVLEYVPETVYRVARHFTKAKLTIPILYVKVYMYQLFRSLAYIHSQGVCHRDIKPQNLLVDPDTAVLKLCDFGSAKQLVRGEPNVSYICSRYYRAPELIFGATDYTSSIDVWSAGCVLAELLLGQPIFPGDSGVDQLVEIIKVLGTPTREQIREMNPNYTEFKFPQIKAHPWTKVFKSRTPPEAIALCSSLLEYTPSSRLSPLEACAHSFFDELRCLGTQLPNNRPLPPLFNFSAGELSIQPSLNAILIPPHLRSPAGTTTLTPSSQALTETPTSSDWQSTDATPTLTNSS

IC50 (GCN2 [1]) [µM]	IC50 (GCN2 [2]) [µM]	IC50 (GSK3α(h)) [µM]	IC50 (GSK3β(h)) [µM]	Compound
< 1	1 to 5	< 1	< 1	OCCOc1ccc(-n2nnc3cnc(N[C@@H]4CC[C@@H](O)C4)nc32)cc1 [A203, (1R,3R)-3-{3-[4-(2-hydroxy-ethoxy)-phenyl]-3H-[1,2,3]triazolo[4,5-d]pyrimidin-5-ylamino}-cyclopentanol]
< 1	1 to 5	< 1	< 1	O[C@@H]1CC[C@@H](Nc2ncc3nnn(-c4ccc5ncccc5c4)c3n2)C1 [A204, (1R,3R)-3-(3-quinolin-6-yl-3H-[1,2,3]triazolo[4,5-d]pyrimidin-5-ylamino)-cyclopentanol]
< 1	5 to 10	< 1	< 1	CCOCCn1cc(-c2ccc(-n3nnc4cnc(N[C@@H]5CC[C@@H](C(N)=O)C5)nc43)cc2)cn1 [A211, (1R,3R)-3-(3-{4-[1-(2-ethoxy-ethyl)-1H-pyrazol-4-yl]-phenyl}-3H-[1,2,3]triazolo[4,5-d]pyrimidin-5-ylamino)-cyclopentanecarboxylic acid amide]
< 1	1 to 5	< 1	< 1	COCCn1cc(-c2ccc(-n3nnc4cnc(N[C@@H]5CC[C@@H](O)C5)nc43)cc2)cn1 [A212, (1R,3R)-3-(3-{4-[1-(2-methoxy-ethyl)-1H-pyrazol-4-yl]-phenyl}-3H-[1,2,3]triazolo[4,5-d]pyrimidin-5-ylamino)-cyclopentanol]
< 1	< 1	< 1	< 1	COCCn1cc(-c2ccc(-n3nnc4cnc(N[C@@H]5CC[C@@H](C(N)=O)C5)nc43)cc2)cn1 [A218, (1R,3R)-3-(3-{4-[1-(2-methoxy-ethyl)-1H-pyrazol-4-yl]-phenyl}-3H-[1,2,3]triazolo[4,5-d]pyrimidin-5-ylamino)-cyclopentanecarboxylic acid amide]
< 1	< 1	< 1	< 1	Cc1nc(CCn2cc(-c3ccc(-n4nnc5cnc(N[C@@H]6CC[C@@H](C(N)=O)C6)nc54)cc3)cn2)no1 [A220, (1R,3R)-3-[3-(4-{1-[2-(5-methyl-[1,2,4]oxadiazol-3-yl)-ethyl]-1H-pyrazol-4-yl}-phenyl)-3H-[1,2,3]triazolo[4,5-d]pyrimidin-5-ylamino]-cyclopentanecarboxylic acid amide]
< 1	1 to 5	< 1	< 1	COCCn1cc(-c2ccc(-n3nnc4cnc(N[C@@H]5CC[C@@H](C(N)=O)C5)nc43)cc2F)cn1 [A221, (1R,3R)-3-(3-{3-fluoro-4-[1-(2-methoxy-ethyl)-1H-pyrazol-4-yl]-phenyl}-3H-[1,2,3]triazolo[4,5-d]pyrimidin-5-ylamino)-cyclopentanecarboxylic acid amide]
< 1	< 1	< 1	< 1	CCOCCn1cc(-c2ccc(-n3nnc4cnc(N[C@@H]5CC[C@@H](C(N)=O)C5)nc43)cc2F)cn1 [A223, (1R,3R)-3-(3-{4-[1-(2-ethoxy-ethyl)-1H-pyrazol-4-yl]-3-fluoro-phenyl}-3H-[1,2,3]triazolo[4,5-d]pyrimidin-5-ylamino)-cyclopentanecarboxylic acid amide]
< 1	5 to 10	< 1	< 1	COCCn1cc(-c2ccc(-n3nnc4cnc(N[C@@H]5CC[C@@H](C(N)=O)C5)nc43)cn2)cn1 [A224, (1R,3R)-3-(3-{6-[1-(2-methoxy-ethyl)-1H-pyrazol-4-yl]-pyridin-3-yl}-3H-[1,2,3]triazolo[4,5-d]pyrimidin-5-ylamino)-cyclopentanecarboxylic acid amide]
< 1	1 to 5	< 1	< 1	CCOCCn1cc(-c2ccc(-n3nnc4cnc(N[C@@H]5CC[C@@H](C(=O)NCCOC)C5)nc43)cc2)cn1 [A225, (1R,3R)-3-(3-{4-[1-(2-ethoxy-ethyl)-1H-pyrazol-4-yl]-phenyl}-3H-[1,2,3]triazolo[4,5-d]pyrimidin-5-ylamino)-cyclopentanecarboxylic acid (2-methoxy-ethyl)-amide]
< 1	1 to 5	< 1	< 1	CCOCCn1cc(-c2ccc(-n3nnc4cnc(N[C@@H]5CC[C@@H](C(=O)NCCO)C5)nc43)cc2)cn1 [A226, (1R,3R)-3-(3-{4-[1-(2-ethoxy-ethyl)-1H-pyrazol-4-yl]-phenyl}-3H-[1,2,3]triazolo[4,5-d]pyrimidin-5-ylamino)-cyclopentanecarboxylic acid (2-hydroxy-ethyl)-amide]
< 1	1 to 5	< 1	< 1	CCOCCn1cc(-c2ccc(-n3nnc4cnc(N[C@@H]5CC[C@@H](O)C5)nc43)cc2)cn1 [A227, (1R,3R)-3-(3-{4-[1-(2-ethoxy-ethyl)-1H-pyrazol-4-yl]-phenyl}-3H-[1,2,3]triazolo[4,5-d]pyrimidin-5-ylamino)-cyclopentanol]
< 1	5 to 10	< 1	< 1	COCCn1cc(-c2ccc(-n3nnc4cnc(N[C@@H]5CC[C@@H](O)C5)nc43)cc2F)cn1 [A228, (1R,3R)-3-(3-{3-fluoro-4-[1-(2-methoxy-ethyl)-1H-pyrazol-4-yl]-phenyl}-3H-[1,2,3]triazolo[4,5-d]pyrimidin-5-ylamino)-cyclopentanol]
< 1	1 to 5	< 1	< 1	COCCn1cc(-c2ccc(-n3nnc4cnc(N[C@@H]5CC[C@@H](C(N)=O)C5)nc43)cc2C)cn1 [A230, (1R,3R)-3-(3-{4-[1-(2-methoxy-ethyl)-1H-pyrazol-4-yl]-3-methyl-phenyl}-3H-[1,2,3]triazolo[4,5-d]pyrimidin-5-ylamino)-cyclopentanecarboxylic acid amide]
< 1	5 to 10	< 1	< 1	CC(C)(O)Cn1cc(-c2ccc(-n3nnc4cnc(N[C@@H]5CC[C@@H](O)C5)nc43)cc2)cn1 [A232, (1R,3R)-3-(3-{4-[1-(2-hydroxy-2-methyl-propyl)-1H-pyrazol-4-yl]-phenyl}-3H-[1,2,3]triazolo[4,5-d]pyrimidin-5-ylamino)-cyclopentanol]
< 1	1 to 5	< 1	< 1	COCCn1cc(-c2ccc(-n3nnc4cnc(N[C@@H]5CC[C@@H](C(=O)NCC6CCN(C)CC6)C5)nc43)cc2)cn1 [A235, (1R,3R)-3-(3-{4-[1-(2-methoxy-ethyl)-1H-pyrazol-4-yl]-phenyl}-3H-[1,2,3]triazolo[4,5-d]pyrimidin-5-ylamino)-cyclopentanecarboxylic acid (1-methyl-piperidin-4-ylmethyl)-amide]
< 1	5 to 10	< 1	< 1	CCOc1ccc(-n2nnc3cnc(N[C@@H]4CC[C@@H](C(=O)NCCC(C)(C)O)C4)nc32)cc1 [A240, (1R,3R)-3-[3-(4-ethoxy-phenyl)-3H-[1,2,3]triazolo[4,5-d]pyrimidin-5-ylamino]-cyclopentanecarboxylic acid (3-hydroxy-3-methyl-butyl)-amide]
< 1	< 1	< 1	< 1	COc1ccc(-n2nnc3cnc(N[C@@H]4CC[C@@H](C(=O)NCCN5CCN(C)CC5)C4)nc32)cc1 [A244, (1R,3R)-3-[3-(4-methoxy-phenyl)-3H-[1,2,3]triazolo[4,5-d]pyrimidin-5-ylamino]-cyclopentanecarboxylic acid [2-(4-methyl-piperazin-1-yl)-ethyl]-amide]
< 1	< 1	< 1	< 1	Cc1ccc2cc(-n3nnc4cnc(N[C@@H]5CC[C@@H](C(=O)NCCO)C5)nc43)ccc2n1 [A245, (1R,3R)-3-[3-(2-methyl-quinolin-6-yl)-3H-[1,2,3]triazolo[4,5-d]pyrimidin-5-ylamino]-cyclopentanecarboxylic acid (2-hydroxy-ethyl)-amide]
< 1	1 to 5	< 1	< 1	COCCNC(=O)[C@@H]1CC[C@@H](Nc2ncc3nnn(-c4ccc5nc(C)ccc5c4)c3n2)C1 [A246, (1R,3R)-3-[3-(2-methyl-quinolin-6-yl)-3H-[1,2,3]triazolo[4,5-d]pyrimidin-5-ylamino]-cyclopentanecarboxylic acid (2-methoxy-ethyl)-amide]
< 1	< 1	< 1	< 1	CCOc1ccc(-n2nnc3cnc(N[C@@H]4CC[C@@H](C(=O)NCCO)C4)nc32)cc1 [A247, (1R,3R)-3-[3-(4-ethoxy-phenyl)-3H-[1,2,3]triazolo[4,5-d]pyrimidin-5-ylamino]-cyclopentanecarboxylic acid (2-hydroxy-ethyl)-amide]
